Assay results from article PMC7335359, “Design and Synthesis of Dihydroxamic Acids as HDAC6/8/10 Inhibitors” (Chemmedchem, 2020).

System: lysosomal staining with LysoTracker DND‐99 (HDAC10 knockdown phenotype)
Test: LysoTracker assay in SK-N-BE(2)C cells
Assay type: cell-based
Conditions: 10 μM inhibitor, normalized to DMSO
Description: LysoTracker assay: SK‐N‐BE(2)‐C cells were seeded into 6‐well dishes at a density of 1.5×10^5 cells per well. Cells were treated with inhibitor over night at concentrations indicated in the figure and stained the following day for 1 h with 50 nM LysoTracker® Red DND‐99 in medium under standard cell culture conditions. Cells were washed with ice‐cold RPMI without phenol‐red and trypsinized for 3 min at 37 °C. Detached cells were centrifuged for 3 min at 8600 g and re‐suspended in ice‐cold RPMI without phenol red. Mean LysoTracker fluorescence was quantified on a BD FACSCanto II platform using the PE filter setting. Data were normalized to mean LysoTracker fluorescence of solvent (DMSO) treated cells.

| Compound | lysosomal staining with LysoTracker DND-99 (HDAC10 knockdown phenotype) |
| --- | --- |
| CN1CCc2c(c3ccccc3n2Cc2ccc(C(=O)NO)cc2)C1 [Compound 1c, reference compound] | effective |

System: acetylation of the HDAC8 substrate SMC3
Test: Western blot of SMC3 acetylation in SK-N-BE(2)C cells
Assay type: cell-based
Conditions: relative to solvent control
Description: Western blot analysis of SMC3, tubulin and histone H3 acetylation: For the analysis of protein acetylation, 1.5–2×10^6 SK‐N‐BE(2)‐C cells were seeded per 10 cm dish and allowed to adhere overnight. Cells were treated for 18 h (Figure 4B) or 6 h (Figure 4E) with inhibitors at concentrations indicated in the respective figure. […] Cell debris was removed by centrifugation (15 000 g for 10 min at 12 °C).

| Compound | acetylation of SMC3 (HDAC8 substrate), Western blot |
| --- | --- |
| COc1ccc(Cn2nc(CN(C)C)c3ccc(C(=O)NO)cc32)cc1 [Compound 2g] | increased acetylation |
| COc1ccc(Cn2ccc3ccc(C(=O)NO)cc32)cc1 [Compound 2a] | increased acetylation |

System: SK‐N‐BE(2)C neuroblastoma cell line
Test: SK-N-BE(2)C cell viability assay (CellTiter-Blue)
Assay type: cell-based
Conditions: SK-N-BE(2)C cells, Figure S1
Description: Cell viability assay: SK‐N‐BE(2)C cells were cultured in Dulbecco's modified Eagle medium (DMEM, Lonza, Basel, Switzerland) supplemented with 10 % fetal calf serum (FCS, Sigma‐Aldrich) and 1 % non‐essential amino acids (NEAA, Lonza). SK‐N‐BE(2)C cells were seeded from a confluent flask into 96‐well plates in 100 μL full growth medium at a density of 5×10^3 cells per well the day before treatment. Cells were treated in triplicates with drug concentrations as indicated in the respective figure. Drugs were dosed from 50 mM and 200 mM stock solutions with a D300e Digital Dispenser (Tecan) and DMSO concentrations were normalized to 0.2 % for all wells. Plates were shaken (1000 rpm orbital shaker, 30 s) and incubated under standard culture conditions for 72 h. To each well 20 μL of CellTiter‐Blue® reagent (G8081, Promega) was added, plates were shaken (600 rpm orbital shaker, 20 s) and incubated at 37 °C overnight. Fluorescence was measured (extinction/emission: 570 nm/590 nm) on a FluoStar Optima (BMG Labtech) plate reader. Cell viability was normalized with untreated positive controls and cell‐free negative controls. IC50‐values were calculated as described in the BRET assay.

| Compound | cytotoxicity (extent of effect) |
| --- | --- |
| CN1CCc2c(c3ccccc3n2Cc2ccc(C(=O)NO)cc2)C1 [Compound 1c, reference compound] | fully cytotoxic |
| COc1ccc(Cn2ccc3ccc(C(=O)NO)cc32)cc1 [Compound 2a] | not fully cy totoxic |

Same assay, conditions: SK-N-BE(2)C cells, Figure S1; read-out: maximum effect, cell growth inhibition

| Compound | Emax [%] |
| --- | --- |
| COc1ccc(Cn2ccc3ccc(C(=O)NO)cc32)cc1 [Compound 2a] | 62 |

Same assay, conditions: SK-N-BE(2)C cells; read-out: EC50 dose-response curve (Figure S1)

| Compound | EC50 [µM] |
| --- | --- |
| COc1ccc(Cn2ccc3ccc(C(=O)NO)cc32)cc1 [Compound 2a] | 8.1 |

Target: T1, HDAC10 (Homo sapiens, UniProt Q969S8)
T1 sequence (Q969S8 1-669): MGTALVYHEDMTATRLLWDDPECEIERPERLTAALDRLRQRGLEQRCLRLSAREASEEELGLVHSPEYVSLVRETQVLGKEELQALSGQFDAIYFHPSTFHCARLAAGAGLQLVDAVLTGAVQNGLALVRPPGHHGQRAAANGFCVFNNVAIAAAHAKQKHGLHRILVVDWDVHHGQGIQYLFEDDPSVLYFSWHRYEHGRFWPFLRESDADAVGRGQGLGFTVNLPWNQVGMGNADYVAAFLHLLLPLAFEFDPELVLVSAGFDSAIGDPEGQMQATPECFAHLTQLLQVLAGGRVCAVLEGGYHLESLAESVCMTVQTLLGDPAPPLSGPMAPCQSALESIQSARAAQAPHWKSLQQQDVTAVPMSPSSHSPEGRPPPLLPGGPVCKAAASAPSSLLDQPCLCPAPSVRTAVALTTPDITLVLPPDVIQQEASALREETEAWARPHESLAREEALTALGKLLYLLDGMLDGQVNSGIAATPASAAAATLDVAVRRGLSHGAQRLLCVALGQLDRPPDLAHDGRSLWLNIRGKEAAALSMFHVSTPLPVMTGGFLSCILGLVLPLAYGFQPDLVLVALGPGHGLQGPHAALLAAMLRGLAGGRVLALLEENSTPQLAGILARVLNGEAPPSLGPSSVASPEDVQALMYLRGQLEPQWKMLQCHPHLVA
Test: cellular BRET HDAC10 target engagement assay (stably transfected HeLa cells)
Assay type: cell-based
Parameters: host or cells: HeLa (stably transfected mono-clones)
Conditions: cellular target engagement, one experiment in triplicate; read-out: HDAC10 BRET pIC50 (converted)
Description: Production of mono‐clones stably expressing HDAC‐nanoBRET proteins: Plasmids expressing a fusion of HDAC10 with nanoluciferase were obtained from Promega (N2170). HeLa cells (0.75×10^6) were seeded in a 6 cm dish and after 24 h were transfected with a mix of 10 μg plasmid and 3 μL Fugene in 200 μL OptiMEM. In detail, cells were washed with pre‐warmed OptiMEM and subsequently overlaid with 2.3 mL of OptiMEM. After addition of 200 μL transfection mix, cells were incubated for 24 h at 37 °C. Cells were than trypsinized and 0.2×10^5 cells were seeded into both 10 cm and 15 cm dishes. Transformants were selected with 1 mg/mL G‐418 for 6 days with a media change after 3 days. Clones which formed colonies were picked by rinsing plates with 3 mL Trypsin/EDTA (Sigma T3924) followed by a 2 min incubation with 300 μL Trypsin/EDTA at 37 °C. Colonies were then loosened and aspirated with a 10 μL filter tip and transferred to 24‐well plates containing selection medium.
Culture of stable BRET cell lines: Stably transfected HeLa cells were cultivated under sterile conditions in polystyrene cell culture flasks (658170, Greiner) at 37 °C and 5 % CO2 in a humidified atmosphere. DMEM growth medium (D6049, Sigma) was supplemented with 10 % FCS (FBS‐12A, Capricorn Scientific), 1 % penicillin‐streptomycin (P4333, Sigma) and 1 mg/mL Geneticin (2039.3, Roth). At confluency, cells were passaged by removing old medium, DPBS (14190‐094, gibco) wash, trypsination (T4049, Sigma) and seeding in fresh growth medium.
BRET assay: The intracellular target engagement assay on HDAC10 was performed as described by the kit manufacturer in a 96‐well plate (3600, Corning) format with 1.9×10^4 cells per well and a tracer concentration of 0.3 μM. […] Drug dosing was performed from 10 mM and 1 mM DMSO stock solutions with a D300e Digital Dispenser (Tecan), DMSO concentrations were normalized to 0.5 % for all wells. Assay plates were incubated at 37 °C for 2 h followed by measurement of 450 nm and 650 nm luminescence (80 nm bandwidth) at room temperature with a CLARIOstar (BMG Labtech) plate reader 2 min after NanoLuc substrate addition.

| Compound | IC50 [nM] |
| --- | --- |
| O=C(NO)c1ccc(Cc2c[nH]c3ccccc23)cc1 [Compound 1d, 4-((1H-indol-3-yl)methyl)-N-hydroxyb en zamide] | 39.8 |

Target: T1, HDAC10
Test: ligand displacement TR-FRET assay, HDAC10
Assay type: binding
Parameters: host or cells: Sf21 insect cells (baculovirus)
Conditions: ligand-displacement FRET assay; read-out: HDAC10 pIC50 (converted)
Description: Expression and purification of TwinStrepII‐GST‐HDAC10: A synthetic gene encoding TwinStrepII‐GST‐HDAC10 (human) was ordered from GeneArt (Thermo Fischer Scientific) and subcloned into the pFastBac1 vector. The resulting construct was used for transposition in E. coli DH10EMBacY cells. The isolated bacmid DNA was then used to generate the recombinant baculovirus. For protein expression, 10 mL of baculovirus was added to 1 L of Sf21 cells at a density of 1×10^6 cells/mL. The infected Sf21 cells were grown for 72 h in Sf‐900 III SFM medium (Thermo Fischer Scientific) at 27 °C. Cells were harvested by centrifugation and re‐suspended in running buffer (100 mM Tris pH 8.0, 150 mM NaCl, 1 mM EDTA and 1 mM DTT) supplemented with 10 mM MgCl2, benzonase and cOmplete protease inhibitors (Merck). […] The clarified lysate was then loaded onto a 5 mL Strep‐Tactin Superflow high capacity column (IBA) pre‐equilibrated in running buffer. After sample loading and washing, the TwinStrepII‐GST‐HDAC10 protein was eluted in running buffer supplemented with 5 mM desthiobiotin (IBA). The elution fractions containing TwinStrepII‐GST‐HDAC10 were pooled and concentrated before being injected onto a HiLoad 16/600 Superdex 200 pg size exclusion chromatography column (GE Healthcare) pre‐equilibrated with 25 mM HEPES/NaCl pH 7.5, 150 mM NaCl, 0.5 mM EDTA, 1 mM DTT and 10 % glycerol. Samples were eluted from the size exclusion chromatography column in the same buffer, flash‐frozen in liquid N2 and stored at −80 °C.
The TR‐FRET measurements of the monohydroxamic acids in this manuscript were measured in the original assay format, which is described directly below this paragraph. The TR‐FRET measurements of the dihydroxamic acids in this manuscript were measured in the modified format, which is described two paragraphs below this one.
The concentrations of reagents in 10 μL final assay volume were 3 nM GST‐HDAC10, 30 nM “Tubastatin‐Alexa647‐Tracer” and 0.5 nM Eu‐anti‐GST. GST‐HDAC10 and LanthaScreen™ Eu‐anti‐GST Antibody were purchased from Life Technologies, and the Tubastatin‐Alexa647‐Tracer was synthesized in‐house as previously described.19 An 11‐fold 1 : 3‐serial dilution of compounds starting at 2 mM was prepared in 384 well pp‐plates (Greiner) from 10 mM stocks in DMSO and 1 μL was transferred to assay plates. Nine μL of the reagent‐mix was added and the plate was incubated for 1 h at RT before TR‐FRET was measured in an EnVision™ plate reader equipped with a TR‐FRET Laser module. […] Percent inhibition was calculated for each well from negative control wells containing 2 % DMSO and positive control wells containing 20 μM SAHA. The resulting dose‐response curves were fitted in ActivityBase (IDBS) using a four‐parameter logistic model and pIC50‐values were calculated.
After drug dosing to the premixed assay reagents in buffer, plates were shaken (800 rpm orbital shaker, 30 s), centrifuged (300 g, 1 min) and incubated at room temperature in the dark for 60 min. TR‐FRET was measured with a CLARIOstar (BMG Labtech) plate reader, equipped with TR‐FRET filters.

| Compound | IC50 [nM] |
| --- | --- |
| O=C(NO)c1ccc(Cc2c[nH]c3ccccc23)cc1 [Compound 1d, 4-((1H-indol-3-yl)methyl)-N-hydroxyb en zamide] | 27.5 |
| COc1ccc(Cn2nc(CN(C)C)c3ccc(C(=O)NO)cc32)cc1 [Compound 2g] | 6920 |
| COc1ccc(Cn2cc(CN(C)C)c3ccc(C(=O)NO)cc32)cc1 [Compound 2b] | 1620 |
| COc1ccc(Cc2c[nH]c3ccc(C(=O)NO)cc23)cc1 [Compound 2d] | 3160 |
| O=C(NO)c1ccc(Cn2ccc3ccccc32)cc1 [Compound 1a] | 66.1 |
| O=C(NO)c1ccc(Cn2ncc3ccccc32)cc1 [Compound 1f] | 234 |
| COc1ccc(Cn2c3c(c4ccc(C(=O)NO)cc42)CN(C)CC3)cc1 [Compound 2c] | 6460 |
| COc1ccc(Cn2ncc3ccc(C(=O)NO)cc32)cc1 [Compound 2f] | 19100 |
| COc1ccc(Cc2cn(CCN(C)C)c3ccc(C(=O)NO)cc23)cc1 [Compound 2e] | 661 |

Target: T2, HDAC8 (Homo sapiens, UniProt Q9BY41)
T2 construct: purchased BPS Bioscience 50008
T2 sequence (Q9BY41 1-377): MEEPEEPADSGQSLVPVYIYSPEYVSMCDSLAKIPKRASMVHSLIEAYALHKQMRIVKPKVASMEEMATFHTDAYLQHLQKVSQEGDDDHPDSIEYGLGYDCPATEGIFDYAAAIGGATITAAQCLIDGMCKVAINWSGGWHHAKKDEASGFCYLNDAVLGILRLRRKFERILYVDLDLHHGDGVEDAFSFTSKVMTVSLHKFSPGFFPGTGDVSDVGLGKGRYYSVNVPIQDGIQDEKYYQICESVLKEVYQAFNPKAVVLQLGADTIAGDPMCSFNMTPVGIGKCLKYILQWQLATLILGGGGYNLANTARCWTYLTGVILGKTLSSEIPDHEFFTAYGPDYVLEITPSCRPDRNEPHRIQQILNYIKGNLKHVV
Test: HDAC-Glo I/II enzymatic assay, HDAC8
Assay type: biochemical
Conditions: read-out: HDAC8 pIC50 (converted)
Description: Inhibitors were tested at eight serial dilutions in triplicate ranging from 50 μM–86,7 pM (HDAC6) or 100 μM–8,67 nM (HDAC1,2,3,8). Drug dosing was performed from 10 mM and 0.1 mM DMSO stock solutions with a D300e Digital Dispenser (Tecan). HDACs (7 ng/mL for HDAC1, 10 ng/mL for HDAC2, 200 ng/mL for HDAC3/Ncor2 complex, 100 ng/mL for HDAC6, 200 ng/mL for HDAC8) and inhibitors were incubated together for 30 min at room temperature. After addition of the HDAC‐Glo™ I/II reagent, plates were shaken (800 rpm orbital shaker, 30 s), centrifuged (300 g, 1 min) and incubated at room temperature for 30 min. Luminescence was detected with a CLARIOstar (BMG Labtech) plate reader.

| Compound | IC50 [nM] |
| --- | --- |
| COc1ccc(Cn2nc(CN(C)C)c3ccc(C(=O)NO)cc32)cc1 [Compound 2g] | 29.5 |
| COc1ccc(Cn2cc(CN(C)C)c3ccc(C(=O)NO)cc32)cc1 [Compound 2b] | 49 |
| COc1ccc(Cc2c[nH]c3ccc(C(=O)NO)cc23)cc1 [Compound 2d] | 69.2 |
| O=C(NO)c1ccc(Cn2ccc3ccccc32)cc1 [Compound 1a] | 380 |
| O=C(NO)c1ccc(Cn2ncc3ccccc32)cc1 [Compound 1f] | 389 |
| COc1ccc(Cn2c3c(c4ccc(C(=O)NO)cc42)CN(C)CC3)cc1 [Compound 2c] | 141 |
| COc1ccc(Cn2ncc3ccc(C(=O)NO)cc32)cc1 [Compound 2f] | 20.9 |
| COc1ccc(Cc2cn(CCN(C)C)c3ccc(C(=O)NO)cc23)cc1 [Compound 2e] | 43.7 |
